Assay results: US20210330736A1 (UNIVERSITEIT VAN AMSTERDAM, priority 2018, published 2021)
Bridges are numbered along the chain shown (N, C = ends). [ ]: non-standard residue; d: D form. Abu = CC[C@H](N)C(=O)O

Columns and labels:
Type in all cases: cell-based
[1] = test system: Ser40 phosphorylation of Th in MN9D cells; assay: Th Ser40 phosphorylation in MN9D cells (western blot, P-Ser40/total Th)
Description: FIG. 6. PDE2a is an important effector regulating Ser40 phosphorylation in MN9D cells. MN9D cultures were treated with IBMX or BAY-60-7550 (50 μM), a PDE2A-selective inhibitor. Cells were analyzed on western-blot for phosphorylation of Ser40 , total Th, and actin.
(§1) FIG. 7. PDE2a is an important effector regulating Ser40 phosphorylation in MN9D cells. BAY-60-7550 dose-curve and representative examples in MN9D (n=9, red) and HEK cells (n=4, blue) (Mean±SEM). Cells were treated with various concentrations of BAY 60-7750 and analyzed for Th phosphorylation on Ser40 , total Th and actin.
FIG. 10. PDE11 is an important effector regulating Ser40 phosphorylation in MN9D cells. BC 11-38 dose-curve and representative examples in MN9D (n=2) (Mean±SEM). IBMX served as a control and was used at 100 μM. Cell were analyzed for phosphorylation of Th on Ser40 and total Th was used as a loading control to determine phosphorylation specific effects.
24 hours prior to the administration of the different compounds, cells were serum-starved with DMEM medium supplemented with L-glutamine and Pen&Strep. Unless otherwise stated, the concentration of the different reagents is reported in Table 1 and the duration of the treatment was 1 hour.
Cells were harvested in 150 μL of Laemmli sample buffer (2% SDS, 10% glycerol, 60 mM Tris-Cl pH 6.8, 0.01% bromophenol blue, 50 mM freshly added DTT). Wells were duplicated in pairs and pooled into the same tubes to minimize variability. Samples were sonicated at maximum potency during 3 minutes, heated at 95° C. for 5 minutes and spun down briefly before loading. Running gels were 10% polyacrylamide except for the GUCY2C detection, which was optimal in 7% gels (375 mM Tris-Cl pH 8.8, 0.1% APS, 0.1% SDS, 0.04% TEMED). Stacking gels were 5% polyacrylamide (125 mM Tris-Cl pH 6.8, 0.1% APS, 0.1% SDS, 0.04% TEMED).
Up to 35 μL of sample was loaded in each slot and run in the presence of tris-glycine buffer and 0.1% SDS. Running conditions were 100 V during the first 20 minutes, followed by 160 V until the migration front reached the bottom of the gel. The transference was performed at 100 V onto 0.2 μm nitrocellulose membranes, in the presence of tris-glycine buffer and 20% methanol. The blotting duration was 140 minutes except for the detection of GUCY2C, which was transferred during 240 minutes in the presence of 0.1% SDS. Membranes were then submerged in Ponceau S solution to check blotting efficiency (0.1% Ponceau S, 5% acetic acid). After several washings with DEMI water, blots were incubated during 1 hour in the presence of 5% milk powder and TBS-T (154 mM NaCl, 49.5 mM Tris-Cl pH 7.4, 0.1% Tween-20). The incubation with the primary antibodies was performed O/N at 4° C. in TBS-T (consult Table 2 for dilution and species). Membranes were rinsed in TBS-T during 1 hour to remove the excess antibody. The incubation with the secondary antibodies took place during 60 minutes at room temperature (1:10,000 dilution in TBS-T, with the exception of the goat secondary which was diluted 1:20,000). Secondary antibodies were fused to the horseradish peroxidase and raised against the host species of the primary antibody. After additional washings during 1 hour, blots were exposed to an enhanced chemiluminescence solution and the signal was detected using an Odyssey imager (LI-COR). Band densitometry was performed with LI-COR Image Studio Lite. For graph quantifications, ‘Fold Change’ represents the ratio P-Ser40/Total Th. Statistical comparisons between pair of groups correspond to unpaired Student's t-tests, as calculated with GraphPad Prism. Asterisks denote the following p-values: *<0.05, **<0.01, ***<0.001, ****<0.0001.
IBMX is a non-selective PDE inhibitor, therefore we investigated the effect of inhibiting a specific PDE selectively on Ser40 phosphorylation. To study the effect of PDE2A inhibition on Ser40 phosphorylation we treated the dopaminergic cell-line MN9D with Bay BAY-60-7550 and analyzed the effects. […]

[2] = test system: Ser40 phosphorylation of Th in HEK cells transfected with Th; assay: Th Ser40 phosphorylation in HEK cells transfected with Th (western blot); conditions: HEK transfected with Th, 500 μM, 48 hours post-plating
Description: FIG. 3. HEK cells are a suitable model to study GUCY2C-induced Ser40 phosphorylation. (A) RT-qPCR data from intact HEK extracts. Input material was 10 ng of total RNA. Cp corresponds to the cycle number in which the expression starts to be considered positive. (−) represents the water control, which is negative in every case. (B) HEK cultures were transfected with Th and treated with a cGMP analogue 48 hours post-plating. Changes in Ser40 phosphorylation were studied. The graph represents the statistical analysis (n=6; Mean±SEM). Unpaired Student's t-test (p-value: ****<0.0001). Hereon, ‘Fold Change’ corresponds to the ratio P-Ser40/Total Th.
as §1
HEK cells were maintained in 100-mm Petri dishes and grown in DMEM medium supplemented with L-glutamine, penicillin-streptomycin (Pen&Strep) and 10% heat-inactivated fetal bovine serum (HIFBS). Growing conditions were 37° C. and 5% CO2. For every-other-day passages, HEK cultures were split at a 1:3 dilution. From Friday to Monday, the split proportion was doubled for all cell lines. For passaging, cultures were rinsed with PBS and incubated with 1 mL of trypsin during 5 minutes. Cells were resuspended in growth medium and finally split to the proper dilution. The experiments were performed in 12-well plates. For immunocytochemistry analysis, sterile 18-mm coverslips were added prior to the plating. 500 !μL of cell resuspension was seeded in each well. If experiments were to be performed 48 hours after the plate preparation, 1:5 was the seeding ratio for HEK cells. When the experiments took place 96 hours post-plating, 1:7 was the working dilution for HEK cells. Unless otherwise stated, HEK cultures were processed 96 hours post-plating.
HEK cells were transfected using the calcium-phosphate method. […]

[3] = test system: Th Ser40 phosphorylation in mouse striatum slices; assay: Th Ser40 phosphorylation in mouse striatal slices ex vivo (WES automated western); conditions: for Fold change (average), P-S40 TH/TTH / effects in striatal slices (significance, in words): 1 h; for Fold change (average), P-S40 TH/TTH: WES; for effects in striatal slices (significance, in words): peptides 10 μM, mouse striatal slices
Text: FIG. 13. Bay 60-7550 and Guanylin synergize to induce Ser40 phosphorylation Analysis of striatal slices treated with indicated compounds. WES data showing the phosphorylation of Th on Serine 40 is shown as well as total Th levels (a). From left to right are sequential striatal slices from rostral to caudal. Every slice is split into left and right hemisphere and either treated with compounds or vehicle. Left a positive and negative control is shown (Neuro2a cells transfected with Th or empty vector). The amount of Th Ser40 is corrected for the amount of total Th and shown in the bar graph (b). Each individual slice is indicated by a different symbol. Signficance is determined using a 2-tailed paired t-test. 2-tailed paired t-test: p=0.006.
Adult mice with an average of 5 weeks were sacrificed and the brain was quickly removed and sliced into coronal sections of 250 μm using a vibratome. Sections containing striatum were micro-dissected to remove non-striatal structures. Hemispheres were separated and one hemisphere was treated with compounds whereas the counter-hemisphere was treated with vehicle. Treatment of slices occurred in carbonized artificial cerebrospinal fluid (aCSF). After treatments, slices were lyzed in SDS containing sample buffer, sonicated, and heated at 95° C. Samples were analyzed on a WES automated western system (Protein Simple) according to manufacturer's instructions.
To investigate the effect of PDE2 inhibition in the mouse brain, an ex-vivo approach using brain slices was utilized. Coronal slices of mouse striatum were prepared and treated with BAY-60 7550 diluted in aCSF and subsequently analyzed by a WES automated western system. […] PDE2 is thus expressed in dopaminergic neurons and PDE2 protein and Th protein are present in the synaptic terminals of the neurons which project from the midbrain dopamine system to the striatum. To investigate the effects of GUCY2C ligands on Th activation, coronal slices of the mouse striatum were prepared, treated with guanylin and analyzed for Th Ser40 phosphorylation as was done for BAY-60-7550. […] The machinery for producing dopamine is thus present in the synaptic terminals where dopamine is released. […] Since both BAY 60-7550 and guanylin increased Th phosphorylation at 10μM, but not at 1 μM, we examined the effect of combining BAY 60-7750 and guanylin at 1μM.

GUCY2C = GUCY2C (Homo sapiens, UniProt P25092); assay: GUCY2C ligand analysis in HEK-293 cells transfected with GUCY2C and Th (WES); parameters: expressed in transfected cells; host or cells: HEK-293 cells transfected with GUCY2C and Th; conditions: 10 μM, Th Ser40 corrected for total Th, n=3
Chain of GUCY2C (P25092 24-1073): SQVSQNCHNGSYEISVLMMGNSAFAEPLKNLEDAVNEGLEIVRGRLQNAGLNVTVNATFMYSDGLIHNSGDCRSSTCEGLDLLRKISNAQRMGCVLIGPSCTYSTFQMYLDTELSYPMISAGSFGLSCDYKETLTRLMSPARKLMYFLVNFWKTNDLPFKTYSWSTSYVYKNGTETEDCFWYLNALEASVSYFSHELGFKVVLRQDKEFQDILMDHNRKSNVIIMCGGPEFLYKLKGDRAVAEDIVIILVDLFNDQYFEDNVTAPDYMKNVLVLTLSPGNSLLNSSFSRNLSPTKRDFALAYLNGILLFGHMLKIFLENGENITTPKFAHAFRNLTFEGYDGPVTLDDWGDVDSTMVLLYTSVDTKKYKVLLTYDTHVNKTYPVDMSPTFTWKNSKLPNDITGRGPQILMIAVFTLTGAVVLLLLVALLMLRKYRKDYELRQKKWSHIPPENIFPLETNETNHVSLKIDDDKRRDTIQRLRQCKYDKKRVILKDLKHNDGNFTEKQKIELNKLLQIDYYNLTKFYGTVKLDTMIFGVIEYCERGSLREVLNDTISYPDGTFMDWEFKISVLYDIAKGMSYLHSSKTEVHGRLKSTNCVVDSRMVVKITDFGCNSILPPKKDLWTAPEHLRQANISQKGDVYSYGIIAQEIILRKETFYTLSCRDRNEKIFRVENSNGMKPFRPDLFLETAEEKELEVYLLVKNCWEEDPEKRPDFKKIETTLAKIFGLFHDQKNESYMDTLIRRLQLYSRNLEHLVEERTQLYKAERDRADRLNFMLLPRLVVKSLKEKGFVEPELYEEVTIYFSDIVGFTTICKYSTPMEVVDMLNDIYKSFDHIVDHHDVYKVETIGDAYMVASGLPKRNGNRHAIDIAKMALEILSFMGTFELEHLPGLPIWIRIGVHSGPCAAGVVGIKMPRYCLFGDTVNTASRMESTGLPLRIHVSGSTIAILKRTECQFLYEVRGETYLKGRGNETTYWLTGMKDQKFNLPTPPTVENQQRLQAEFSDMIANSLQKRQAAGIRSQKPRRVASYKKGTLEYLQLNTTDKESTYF
Description: Potential GUCY2C ligands were tested in HEK-293 cells transfected with GUCY2C and Th and subsequently treated and analyzed by automated western (WES). Th Ser40 was corrected for total Th. Controls were set to 1. Significance is determined by two-tailed t-test on n=3. * p<0.05, **p<0.01, ***p<0.005, “”p<0.001. A) Guanylin control 10 μM. B) Peptides 1 to 5 in an amount of 10 μM. C) Peptides 6 to 11 in an amount of 10 μM.
We designed novel peptides with different activities with respect to endogenous GUCY2C ligands (Table 3). The peptides were analyzed in Th and GUCY2C transfected HEK-293 cells and subsequently tested ex-vivo in mice striatal slices. […] We synthezised uroguanylin and heat stable toxin as controls for the synthezised peptides and they thus are from a different source than the commercially available uroguanylin and heat stable toxin. […] Possibly the effects of the peptides can differ depending on the area in the striatum which is stimulated.

Compound	Fold change (average), P-S40 TH/TTH ([3]; 10 μM, striatal slices)	Ser40 phosphorylation in HEK-293 cells (significance, in words) (GUCY2C)	other results
CCCSc1nc2c(c(=O)n1-c1ccccc1)SCC2 [BC 11-38]	–	–	performance versus IBMX on Ser40 phosphorylation ([1]; IBMX 100 μM as control): performed less well than the positive control IBMX; phosphorylation of Th on Ser40 as compared to total Th (in words) ([1]; dose-curve): increase in the phosphorylation of Th on Ser40
Nc1nc2c(nc(Br)n2[C@@H]2O[C@@H]3COP(=O)(O)O[C@H]3[C@H]2O)c(=O)[nH]1 [Peptide 8-Bromo-cGMP, 8-Bromo-cGMP]	–	–	P-Ser40 levels upon compound administration [2]: small but significant increase
H-NDCCELCCNVACTGCL-OH [Peptide 4]	1.00	significant effects	–
H-NDDCELCVNVACTGCL-OH (disulfide 4-12, 7-15; SMILES CC(C)C[C@H](NC(=O)[C@@H]1CSSC[C@@H]2NC(=O)[C@H](CC(C)C)NC(=O)[C@H](CCC(=O)O)NC(=O)[C@@H](NC(=O)[C@H](CC(=O)O)NC(=O)[C@H](CC(=O)O)NC(=O)[C@@H](N)CC(N)=O)CSSC[C@H](NC(=O)[C@H](C)NC(=O)[C@H](C(C)C)NC(=O)[C@H](CC(N)=O)NC(=O)[C@H](C(C)C)NC2=O)C(=O)N[C@@H]([C@@H](C)O)C(=O)NCC(=O)N1)C(=O)O) [Peptide 1]	–	did not show any significant effects	effects in striatal slices (significance, in words) [3]: did not show any significant effects
H-NDDCELCVNVACTGCLL-OH (disulfide 4-12, 7-15; ends not checked) [Peptide 2]	2.23	significant effects	rank of fold change in striatal slices ([3]; 10 μM, striatal slices): largest fold change; effects in striatal slices (significance, in words) [3]: not significant
H-NDDCELCVNVVCTGCL-OH (disulfide 4-12, 7-15; ends not checked) [Peptide 5]	1.22	–	–
H-NTFYCCELCCAPACTGCY-OH [Peptide 10]	1.44	significant effects	–
H-NTFYCCELCCNPACAGCY-OH (disulfide 5-10, 6-14, 9-17; ends not checked) [Peptide 9]	1.37	significant effects	–
H-NTFYCCELCCNPaCAGCY-OH [Peptide 11]	1.20	significant effects	–
H-QEECELCINMACTGCL-OH (disulfide 4-12, 7-15; ends not checked) [Peptide 8]	0.89	significant effects	–
H-QEECEL[Abu]INMACTGY-OH (cysteine pairing not given here) [Peptide 6]	0.88	significant effects	–
